Laboratory results: the NIST ThermoML archive (doi:10.1021/je500380x)
± gives the expanded uncertainty stated by the source.

Assay: mn = molality of the nth substance listed, in mol/kg
Settings: 100 kPa, Liquid; for viscosity: Falling or rolling sphere viscometry; for mass density: Vibrating tube method; for electrical conductivity: Alternating current cell with electrodes

CCC(=O)OCCN1CCNCC1 [2-(piperazin-1-yl)ethyl propionate] + CCO
Settings | electrical conductivity [S/m] | mass density [kg/m3] | viscosity [mPa·s]
308.15 K, m1 = 0.05 | – | 779.32 ± 0.16 | –
308.15 K, m1 = 0.1 | – | 782.05 ± 0.15 | –
308.15 K, m1 = 0.1985 | – | 787.4 ± 0.15 | –
308.15 K, m1 = 0.3005 | – | 793.06 ± 0.15 | –
308.15 K, m1 = 0.4001 | – | 798.51 ± 0.15 | –
308.15 K, m1 = 0.5007 | – | 804.18 ± 0.15 | –
308.15 K, m1 = 0.5998 | – | 809.68 ± 0.15 | –
308.15 K, m1 = 0.7002 | – | 815.4 ± 0.15 | –
308.15 K, m1 = 0.8 | – | 821.15 ± 0.15 | –
308.15 K, m1 = 0.8957 | – | 826.9 ± 0.14 | –
308.15 K, m1 = 1 | – | 832.84 ± 0.14 | 1.841 ± 0.023
308.15 K, m1 = 1.198 | – | 844.51 ± 0.14 | 2.166 ± 0.027
308.15 K, m1 = 1.401 | – | 857.11 ± 0.14 | 2.605 ± 0.032
308.15 K, m1 = 1.602 | – | 869.1 ± 0.13 | 3.182 ± 0.039
308.15 K, m1 = 1.8 | – | 881.5 ± 0.13 | 3.932 ± 0.049
308.15 K, m1 = 2.001 | – | 894.88 ± 0.13 | 5.113 ± 0.063
308.15 K, m1 = 2.198 | – | 906.86 ± 0.13 | 6.285 ± 0.078
308.15 K, m1 = 2.397 | – | 920.09 ± 0.12 | 7.874 ± 0.097
308.15 K, m1 = 2.597 | – | 933.36 ± 0.12 | 11.18 ± 0.14
308.15 K, m1 = 2.796 | – | 946.62 ± 0.12 | 14.4 ± 0.18
308.15 K, m1 = 3.006 | – | 960.85 ± 0.12 | 20.29 ± 0.25
313.15 K, m1 = 0.05 | 0.0197 ± 0.0002 | 774.92 ± 0.16 | 0.856 ± 0.011
313.15 K, m1 = 0.1 | 0.0323 ± 0.0003 | 777.65 ± 0.16 | 0.893 ± 0.011
313.15 K, m1 = 0.1985 | 0.0513 ± 0.0005 | 783 ± 0.15 | 0.939 ± 0.012
313.15 K, m1 = 0.3005 | 0.0674 ± 0.0007 | 788.67 ± 0.15 | 1.003 ± 0.012
313.15 K, m1 = 0.4001 | 0.0806 ± 0.0008 | 794.13 ± 0.15 | 1.066 ± 0.013
313.15 K, m1 = 0.5007 | 0.0937 ± 0.0009 | 799.81 ± 0.15 | 1.145 ± 0.014
313.15 K, m1 = 0.5998 | 0.1048 ± 0.001 | 805.32 ± 0.15 | 1.225 ± 0.015
313.15 K, m1 = 0.7002 | 0.1144 ± 0.0011 | 811.06 ± 0.15 | 1.317 ± 0.016
313.15 K, m1 = 0.8 | 0.125 ± 0.0013 | 816.82 ± 0.15 | 1.435 ± 0.018
313.15 K, m1 = 0.8957 | 0.1335 ± 0.0013 | 822.6 ± 0.14 | 1.529 ± 0.019
313.15 K, m1 = 1 | 0.1433 ± 0.0014 | 828.55 ± 0.14 | 1.655 ± 0.02
313.15 K, m1 = 1.198 | 0.158 ± 0.0016 | 840.27 ± 0.14 | 1.94 ± 0.024
313.15 K, m1 = 1.401 | 0.1717 ± 0.0017 | 852.89 ± 0.14 | 2.319 ± 0.029
313.15 K, m1 = 1.602 | 0.1817 ± 0.0018 | 864.93 ± 0.14 | 2.817 ± 0.035
313.15 K, m1 = 1.8 | 0.189 ± 0.0019 | 877.36 ± 0.13 | 3.459 ± 0.043
313.15 K, m1 = 2.001 | 0.1932 ± 0.0019 | 890.78 ± 0.13 | 4.464 ± 0.055
313.15 K, m1 = 2.198 | 0.1946 ± 0.0019 | 902.73 ± 0.13 | 5.328 ± 0.066
313.15 K, m1 = 2.397 | 0.193 ± 0.0019 | 916.08 ± 0.12 | 6.774 ± 0.084
313.15 K, m1 = 2.597 | 0.1842 ± 0.0018 | 929.4 ± 0.12 | 9.473 ± 0.12
313.15 K, m1 = 2.796 | 0.177 ± 0.0018 | 942.71 ± 0.12 | 12.12 ± 0.15
313.15 K, m1 = 3.006 | 0.166 ± 0.0017 | 956.85 ± 0.12 | 16.88 ± 0.21
318.15 K, m1 = 0.05 | 0.0198 ± 0.0002 | 770.48 ± 0.16 | 0.787 ± 0.01
318.15 K, m1 = 0.1 | 0.0328 ± 0.0003 | 773.2 ± 0.16 | 0.82 ± 0.01
318.15 K, m1 = 0.1985 | 0.0525 ± 0.0005 | 778.55 ± 0.16 | 0.86 ± 0.011
318.15 K, m1 = 0.3005 | 0.0694 ± 0.0007 | 784.23 ± 0.15 | 0.916 ± 0.011
318.15 K, m1 = 0.4001 | 0.0833 ± 0.0008 | 789.7 ± 0.15 | 0.972 ± 0.012
318.15 K, m1 = 0.5007 | 0.0972 ± 0.001 | 795.39 ± 0.15 | 1.043 ± 0.013
318.15 K, m1 = 0.5998 | 0.109 ± 0.0011 | 800.91 ± 0.15 | 1.113 ± 0.014
318.15 K, m1 = 0.7002 | 0.119 ± 0.0012 | 806.67 ± 0.15 | 1.194 ± 0.015
318.15 K, m1 = 0.8 | 0.1309 ± 0.0013 | 812.45 ± 0.15 | 1.299 ± 0.016
318.15 K, m1 = 0.8957 | 0.14 ± 0.0014 | 818.24 ± 0.15 | 1.381 ± 0.017
318.15 K, m1 = 1 | 0.1514 ± 0.0015 | 824.21 ± 0.14 | 1.492 ± 0.018
318.15 K, m1 = 1.198 | 0.168 ± 0.0017 | 835.97 ± 0.14 | 1.741 ± 0.022
318.15 K, m1 = 1.401 | 0.1837 ± 0.0018 | 848.63 ± 0.14 | 2.071 ± 0.026
318.15 K, m1 = 1.602 | 0.195 ± 0.002 | 860.7 ± 0.14 | 2.503 ± 0.031
318.15 K, m1 = 1.8 | 0.204 ± 0.002 | 873.18 ± 0.13 | 3.057 ± 0.038
318.15 K, m1 = 2.001 | 0.211 ± 0.002 | 886.65 ± 0.13 | 3.912 ± 0.048
318.15 K, m1 = 2.198 | 0.214 ± 0.002 | 898.68 ± 0.13 | 4.647 ± 0.057
318.15 K, m1 = 2.397 | 0.212 ± 0.002 | 912.04 ± 0.13 | 5.859 ± 0.072
318.15 K, m1 = 2.597 | 0.207 ± 0.002 | 925.4 ± 0.12 | 8.129 ± 0.1
318.15 K, m1 = 2.796 | 0.199 ± 0.002 | 938.75 ± 0.12 | 10.27 ± 0.13
318.15 K, m1 = 3.006 | 0.188 ± 0.0019 | 953.35 ± 0.12 | 14.2 ± 0.18
323.15 K, m1 = 0.05 | 0.0198 ± 0.00021 | 765.98 ± 0.16 | 0.725 ± 0.009
323.15 K, m1 = 0.1 | 0.0331 ± 0.0003 | 768.7 ± 0.16 | 0.755 ± 0.009
323.15 K, m1 = 0.1985 | 0.0536 ± 0.0005 | 774.05 ± 0.16 | 0.79 ± 0.01
323.15 K, m1 = 0.3005 | 0.0711 ± 0.0007 | 779.73 ± 0.16 | 0.84 ± 0.01
323.15 K, m1 = 0.4001 | 0.0856 ± 0.0009 | 785.21 ± 0.15 | 0.889 ± 0.011
323.15 K, m1 = 0.5007 | 0.1004 ± 0.001 | 790.92 ± 0.15 | 0.951 ± 0.012
323.15 K, m1 = 0.5998 | 0.1131 ± 0.0011 | 796.46 ± 0.15 | 1.014 ± 0.013
323.15 K, m1 = 0.7002 | 0.1239 ± 0.0012 | 802.23 ± 0.15 | 1.086 ± 0.013
323.15 K, m1 = 0.8 | 0.137 ± 0.0014 | 808.02 ± 0.15 | 1.178 ± 0.015
323.15 K, m1 = 0.8957 | 0.146 ± 0.0015 | 813.82 ± 0.15 | 1.251 ± 0.015
323.15 K, m1 = 1 | 0.159 ± 0.0016 | 819.82 ± 0.15 | 1.348 ± 0.017
323.15 K, m1 = 1.198 | 0.178 ± 0.0018 | 831.61 ± 0.14 | 1.567 ± 0.019
323.15 K, m1 = 1.401 | 0.196 ± 0.002 | 844.32 ± 0.14 | 1.855 ± 0.023
323.15 K, m1 = 1.602 | 0.209 ± 0.002 | 856.43 ± 0.14 | 2.446 ± 0.03
323.15 K, m1 = 1.8 | 0.222 ± 0.002 | 868.95 ± 0.13 | 2.713 ± 0.034
323.15 K, m1 = 2.001 | 0.231 ± 0.002 | 882.65 ± 0.13 | 3.443 ± 0.043
323.15 K, m1 = 2.198 | 0.237 ± 0.002 | 894.55 ± 0.13 | 4.068 ± 0.05
323.15 K, m1 = 2.397 | 0.236 ± 0.002 | 907.95 ± 0.13 | 5.091 ± 0.063
323.15 K, m1 = 2.597 | 0.232 ± 0.002 | 921.36 ± 0.12 | 6.903 ± 0.085
323.15 K, m1 = 2.796 | 0.224 ± 0.002 | 934.75 ± 0.12 | 8.728 ± 0.11
323.15 K, m1 = 3.006 | 0.213 ± 0.002 | 949.41 ± 0.12 | 12.02 ± 0.15
